Data taken from publication PMC9959269, “Pyrrolyl and Indolyl α-γ-Diketo Acid Derivatives Acting as Selective Inhibitors of Human Carbonic Anhydrases IX and XII” (Pharmaceuticals, 2023).
“And” between values parts separate entries of the source, which are not always exact repeats. Equal values may be shown once.

Columns and labels:
hCA I = biological target: T1, hCA I (Homo sapiens, UniProt P00915); test: Stopped flow CO2 hydrase assay, hCA I inhibition; assay type: biochemical; details: stopped flow technique, means ± SEM of 3 different assays, recombinant hCA I; for Ki: read-out: Ki CA I
T1 construct: made in house
T1 sequence (P00915 whole entry): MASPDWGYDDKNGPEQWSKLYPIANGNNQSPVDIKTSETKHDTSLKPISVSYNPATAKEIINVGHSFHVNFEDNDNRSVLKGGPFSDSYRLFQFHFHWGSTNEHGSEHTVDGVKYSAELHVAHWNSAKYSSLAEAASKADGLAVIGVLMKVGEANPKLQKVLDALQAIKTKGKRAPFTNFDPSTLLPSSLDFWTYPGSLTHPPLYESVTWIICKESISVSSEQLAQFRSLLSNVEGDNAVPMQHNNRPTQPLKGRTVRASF
Method: (§1) An Applied Photophysics stopped-flow instrument has been used for assaying the CA catalyzed CO2 hydration activity. Phenol red (at a concentration of 0.2 mM) has been used as an indicator, working at the absorbance maximum of 557 nm, with 20 mM Hepes (pH 7.5) as buffer and 20 mM Na2SO4 (for maintaining constant the ionic strength), following the initial rates of the CA-catalyzed CO2 hydration reaction for a period of 10−100 s. The CO2 concentrations ranged from 1.7 to 17 mM for the determination of the kinetic parameters and inhibition constants. […] The uncatalyzed rates were determined in the same manner and subtracted from the total observed rates. Stock solutions of inhibitor (0.1 mM) were prepared in distilled−deionized water and dilutions up to 0.01 nM were performed thereafter with the assay buffer. Inhibitor and enzyme solutions were preincubated together for 15 min at room temperature before assay to allow for the formation of the E−I complex. The inhibition constants were obtained by nonlinear least-squares methods using PRISM 3 and the Cheng−Prusoff equation, as reported earlier, and they represent the mean from at least three different determinations. […] All hCA isoforms were recombinant ones obtained in-house as reported earlier.

hCA IX = biological target: T2, hCA IX (Homo sapiens, UniProt Q16790); test: Stopped flow CO2 hydrase assay, hCA IX inhibition; assay type: biochemical; details: for Ki: stopped flow technique, means ± SEM of 3 different assays, recombinant hCA IX, read-out: Ki CA IX; for Selectivity for CA IX and XII over hCAs I and II: from Ki values
T2 construct: made in house
Method: as §1

hCA II = biological target: T3, hCA II (Homo sapiens, UniProt P00918); test: Stopped flow CO2 hydrase assay, hCA II inhibition; assay type: biochemical; details: stopped flow technique; means ± SEM of 3 different assays; recombinant hCA II; read-out: Ki CA II
T3 construct: made in house
Method: as §1

hCA XII = biological target: T4, hCA XII (Homo sapiens, UniProt O43570); test: Stopped flow CO2 hydrase assay, hCA XII inhibition; assay type: biochemical; details: for Ki: stopped flow technique, means ± SEM of 3 different assays, recombinant hCA XII, read-out: Ki CA XII
T4 construct: made in house
T4 sequence (O43570 25-354): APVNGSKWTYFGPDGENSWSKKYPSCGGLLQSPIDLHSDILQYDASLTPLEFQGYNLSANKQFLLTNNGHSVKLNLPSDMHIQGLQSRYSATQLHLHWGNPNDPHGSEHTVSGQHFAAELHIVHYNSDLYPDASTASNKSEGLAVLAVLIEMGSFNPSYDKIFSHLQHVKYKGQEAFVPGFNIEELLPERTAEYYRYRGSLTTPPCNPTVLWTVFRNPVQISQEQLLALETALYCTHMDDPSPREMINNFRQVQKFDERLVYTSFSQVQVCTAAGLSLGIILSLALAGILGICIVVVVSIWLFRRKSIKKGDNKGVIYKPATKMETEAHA
Method: as §1

[1] = test system: MDA-MB231, HT-29, SCC-15 and FaDu tumor cell lines; test: In vitro proliferation assay, four tumor cell lines taken together; assay type: cell-based, human; details: for Antiproliferative activity (in words): four tumor cell lines, 5-100 µM, 24 and 48 h; for Lowest concentration determining a significant decrease in alive cells: tumor cell lines, 24 h
Method: (§2) The effects of selected compounds were also examined on the proliferation of four cell lines from different human solid tumors overexpressing hCA isoforms IX and XII: triple negative breast cancer MDA-MB231, colon carcinoma HT-29, tongue squamous carcinoma SCC-15 and pharynx squamous carcinoma FaDu. The cell lines were treated with 5, 10, 20, 50, 100 µM of each single compound for 24 and 48 h. In parallel, the proliferation assay was performed also on HaCaT, a human non-transformed keratinocyte cell line, with each compound used at the same concentrations and times already indicated. The median values from three different proliferation assays for each compound and for each cell line were calculated and their significance was evaluated.
(§3) The following human tumor cell lines were utilized in the present study: triple-negative breast cancer MDA-MB231, colon carcinoma HT-29, tongue squamous cell carcinoma SCC-15 and pharynx squamous cell carcinoma FaDu. In addition, a spontaneously transformed keratinocyte cell line from human skin HaCaT was used as control of non-transformed cells. All cell lines were purchased from the American Type Culture Collection (Manassas, VA, USA).
(§4) The cell lines were grown in RPMI 1640 medium supplemented with 10% fetal calf serum (FCS), 2 mM glutamine and 50 U/mL penicillin–streptomycin.
(§5) All compounds were solubilized in dimethylsulfoxide (DMSO) (Sigma) for a 10 mM stock solution and utilized to final concentrations from 5 to 100 μM for 24 and 48 h. Control cells were treated with equivalent amounts of DMSO in every experiment.
(§6) To determine cytotoxicity, a sulforhodamine B colorimetric assay was performed: 5 × 10^3 cells were plated on 96-well plates, grown for 24 h and treated with different concentrations of each compound for 24 and 48 h. Cells were then fixed with 50% trichloroacetic acid for 1 h at 4 °C and stained for 30 min (min) at room temperature (RT) with 0.4% sulforhodamine B in 1% acetic acid. Excess dye was removed by washing four times with 1% acetic acid. Protein-bound dye was dissolved in 10 mM Tris pH 10 and optical density was determined at 510 nm using a microplate reader.

[2] = test system: pharynx squamous carcinoma FaDu; test: In vitro proliferation assay (sulforhodamine B), FaDu; assay type: cell-based; details: Homo sapiens, ± SD
Method: as §2, §3, §4, §5, §6

colon carcinoma HT-29 = test: In vitro proliferation assay (sulforhodamine B), HT-29; assay type: cell-based; details: Homo sapiens, ± SD
Method: as §2, §3, §4, §5, §6

[3] = test system: tongue squamous carcinoma SCC-15; test: In vitro proliferation assay (sulforhodamine B), SCC-15; assay type: cell-based; details: Homo sapiens, ± SD
Method: as §2, §3, §4, §5, §6

[4] = test system: triple negative breast cancer MDA-MB231; test: In vitro proliferation assay (sulforhodamine B), MDA-MB231; assay type: cell-based; details: Homo sapiens, MDA-MB-231, ± SD
Method: as §2, §3, §4, §5, §6

HaCaT = test: In vitro proliferation assay (sulforhodamine B), HaCaT non-transformed keratinocytes; assay type: cell-based, human; details: 24 and 48 h, no effect except at a very high concentration, above 100 µM
Method: as §2
The following human tumor cell lines were utilized in the present study: triple-negative breast cancer MDA-MB231, colon carcinoma HT-29, tongue squamous cell carcinoma SCC-15 and pharynx squamous cell carcinoma FaDu. […]
To determine cytotoxicity, a sulforhodamine B colorimetric assay was performed: 5 × 10^3 cells were plated on 96-well plates, grown for 24 h and treated with different concentrations of each compound for 24 and 48 h. […] Protein-bound dye was dissolved in 10 mM Tris pH 10 and optical density was determined at 510 nm using a microplate reader.

Row | Ki (hCA I) [µM] | Ki (hCA IX) | Ki (hCA II) [µM] | Ki (hCA XII) | EC50 ([2]; 24 h treatment) [µM] | EC50 ([2]; 48 h treatment) [µM] | EC50 (colon carcinoma HT-29; 24 h treatment) [µM] | EC50 (colon carcinoma HT-29; 48 h treatment) [µM] | EC50 ([3]; 24 h treatment) [µM] | EC50 ([3]; 48 h treatment) [µM] | Selectivity for CA IX and XII over hCAs I and II (hCA IX) | EC50 ([4]; 24 h treatment) [µM] | EC50 ([4]; 48 h treatment) [µM] | Ki CA I (hCA I) | Increase in activity against CA IX relative to diketobutanoic analogue 3a (hCA IX; ratio of Ki values, 5 vs 3a) | Increase in activity against CA XII relative to diketobutanoic analogue 3a (hCA XII; ratio of Ki values, 5 vs 3a) | Compound | Antiproliferative activity (in words) [1] | Effect on proliferation of HaCaT cells (HaCaT) | Lowest concentration determining a significant decrease in alive cells [1] [µM]
1 | > 100 | 1400 ± 100 nM | 77.6 ± 4.5 | 300 nM and 330 nM |  |  |  |  |  |  |  |  |  | inactive |  |  | O=C(O)/C(O)=C/C(=O)c1cn(Cc2ccc(F)cc2)cc1-c1ccccc1 [Compound 3a] |  |  | 
2 | 50.9 ± 4.1 | 18400 ± 1200 nM | 54.7 ± 2.9 | 7900 ± 600 nM |  |  |  |  |  |  |  |  |  |  |  |  | O=C(O)/C(O)=C/C(=O)c1ccn(Cc2ccc(F)cc2)c1 [Compound 3b] |  |  | 
3 | > 100 | 57300 ± 2800 nM | > 100 | 89200 ± 5200 nM |  |  |  |  |  |  |  |  |  |  |  |  | CCOC(=O)/C(O)=C/C(=O)c1cn(Cc2ccc(F)cc2)cc1-c1ccccc1 [Compound 4a] |  |  | 
4 | > 100 | > 100000 nM | > 100 | 71500 ± 4300 nM |  |  |  |  |  |  |  |  |  |  |  |  | CCOC(=O)/C(O)=C/C(=O)c1ccn(Cc2ccc(F)cc2)c1 [Compound 4b] |  |  | 

Continued, compound first:

Row | Compound | Ki (hCA I) [µM] | Ki (hCA IX) | Ki (hCA II) [µM] | Ki (hCA XII) | EC50 ([2]; 24 h treatment) [µM] | EC50 ([2]; 48 h treatment) [µM] | EC50 (colon carcinoma HT-29; 24 h treatment) [µM] | EC50 (colon carcinoma HT-29; 48 h treatment) [µM] | EC50 ([3]; 24 h treatment) [µM] | EC50 ([3]; 48 h treatment) [µM] | Selectivity for CA IX and XII over hCAs I and II (hCA IX) | EC50 ([4]; 24 h treatment) [µM] | EC50 ([4]; 48 h treatment) [µM] | Ki CA I (hCA I) | Increase in activity against CA IX relative to diketobutanoic analogue 3a (hCA IX; ratio of Ki values, 5 vs 3a) | Increase in activity against CA XII relative to diketobutanoic analogue 3a (hCA XII; ratio of Ki values, 5 vs 3a) | Antiproliferative activity (in words) [1] | Effect on proliferation of HaCaT cells (HaCaT) | Lowest concentration determining a significant decrease in alive cells [1] [µM]
5 | O=C(/C=C(\O)C(=O)O)/C=C/c1cccn1Cc1ccc(F)cc1 [Compound 1a] | 81.9 ± 6 | 2000 ± 100 nM | 14.6 ± 0.9 | 1000 ± 100 nM |  |  |  |  |  |  |  |  |  |  |  |  |  |  | 
6 | O=C(/C=C(\O)C(=O)O)/C=C/c1cccn1Cc1ccccc1F [Compound 1b] | 89.6 ± 4.8 | 2500 ± 100 nM | 14 ± 0.8 | 2200 ± 100 nM | 98 ± 8.6 | 90 ± 9.3 | 92 ± 9.9 | 75 ± 8.2 |  |  |  |  |  |  |  |  | low efficacy |  | 
7 | Cc1ccc(Cn2cccc2/C=C/C(=O)/C=C(\O)C(=O)O)cc1 [Compound 1c] | 79 ± 3.9 | 800 nM and 820 nM | 44.4 ± 2.6 | 900 ± 70 nM | 59 ± 4.5 | 17 ± 0.9 | 115 ± 10.8 | 48 ± 4.1 | 96 ± 8.5 | 53 ± 5.9 | two orders of magnitude selective | 85 ± 9.1 | 73 ± 5.5 |  |  |  | significant antiproliferative activity |  | 
8 | O=C(/C=C(\O)C(=O)O)/C=C/c1cc(C(=O)c2ccccc2)c[nH]1 [Compound 1d] | 72.5 ± 5.1 | 1400 ± 100 nM | 38.7 ± 2 | 1100 ± 100 nM |  |  |  |  |  |  |  |  |  |  |  |  |  |  | 
9 | CCOC(=O)/C(O)=C/C(=O)/C=C/c1cccn1Cc1ccc(F)cc1 [Compound 2a] | > 100 | 90100 ± 4700 nM | > 100 | 83600 ± 5400 nM |  |  |  |  |  |  |  |  |  |  |  |  |  |  | 
10 | CCOC(=O)/C(O)=C/C(=O)/C=C/c1cccn1Cc1ccccc1F [Compound 2b] | > 100 | 23700 ± 1600 nM | > 100 | 80500 ± 6100 nM |  |  |  |  |  |  |  |  |  |  |  |  |  |  | 
11 | CCOC(=O)/C(O)=C/C(=O)/C=C/c1cccn1Cc1ccc(C)cc1 [Compound 2c] | > 100 | 90800 ± 4600 nM | > 100 | 89300 ± 5300 nM |  |  |  |  |  |  |  |  |  |  |  |  |  |  | 
12 | O=C(/C=C(\O)C(=O)O)/C=C/c1cn(Cc2ccc(F)cc2)cc1-c1ccccc1 [Compound 5] | > 100 | 300 nM and 320 nM | 62.5 ± 3.6 | 200 nM and 240 nM | 103 ± 11.4 | 23 ± 2.8 | 98 ± 11 | 21 ± 1.6 | 102 ± 9.7 | 58 ± 6.2 | two orders of magnitude selective | 120 ± 15.7 | 105 ± 13.2 | inactive | more than 4 times | about 1.5 times | significant antiproliferative activity |  | 
13 | CCOC(=O)/C(O)=C/C(=O)/C=C/c1cn(Cc2ccc(F)cc2)cc1-c1ccccc1 [Compound 6] | > 100 | 43100 ± 2500 nM | > 100 | 89000 ± 6100 nM |  |  |  |  |  |  |  |  |  |  |  |  |  |  | 
14 | COc1ccc(Cn2cc(/C=C/C(=O)/C=C(\O)C(=O)O)c3ccccc32)cc1 [Compound 7] | 91.7 ± 7.5 | 1100 ± 100 nM | 36.5 ± 1.9 | 800 nM and 830 nM | 51 ± 4.7 | 22 ± 1.2 | 47 ± 5 | 30 ± 2.8 | 48 ± 3.9 | 17 ± 0.8 |  | 21 ± 1.8 | 12 ± 1.1 |  |  |  |  | no significant effect | 10
15 | CCOC(=O)/C(O)=C/C(=O)/C=C/c1cn(Cc2ccc(OC)cc2)c2ccccc12 [Compound 8] | > 100 | 80100 ± 5300 nM | > 100 | 92000 ± 6000 nM | 41 ± 3.3 | 18 ± 0.7 | 75 ± 8.8 | 44 ± 2.3 | 44 ± 4.1 | 21 ± 1.9 |  | 23 ± 1.6 | 17 ± 0.9 |  |  |  |  | no significant effect | 10
